# Laboratory results from US11141368B2, “Cosmetic composition, cosmetic treatment method, kit, and compound” (L'OREAL, priority 2010, dated 2021).
# Experiments:
# [1] = Improvement of hair straightening: leave-in post-treatment of alkaline-straightened hair, visual observation; conditions: 5% by weight in distilled water
# From the text: Applied to hair (originally curly hair of curliness IV) straightened by an alkaline hair-straightening product (Goldys—2% active sodium hydroxide) is the following composition, with an amount of product/amount of hair ratio (g/g) of 2, without rinsing: • 5% by weight of compound (2) from Example 2 • qs for 100% distilled water
# Observations are made at T0.
# The locks are then washed once or 5 times using Ultra Mild shampoo (Garnier), then dried. Observations are made at T1 (after 1 shampoo wash) and at T5 (after 5 shampoo washes).
# The control locks are treated with a composition comprising 100% distilled water.
# [2] = Porosity measurement of the locks of hair using a fluorescent probe; conditions: after 5 shampoo washes, 5% by weight in distilled water
structure (smiles),measurement,setting,value
"Cc1cc(=O)nc(NC(=O)NCCCN(C)C)[nH]1 [Compound 2, N-[3-(dimethylamino)propyl]-N′-(6-methyl-4-oxo-1,4-dihydropyrimidin-2-yl)urea]",hair-straightening efficiency compared to control post-treatment (distilled water),"[1]; T0, product/hair ratio 2 g/g, no rinsing, hair straightened with 2% sodium hydroxide product",improved
same,persistence of the improvement in hair-straightening efficiency after shampoo washes,[1]; T1 (after 1 shampoo wash) and T5 (after 5 shampoo washes),persists
same,internal porosity of the hair versus control hair,[2],equivalent porosity
